The text below walks through data of publication PMC4815073, “Targeting of tubulin polymerization and induction of mitotic blockage by Methyl 2-(5-fluoro-2-hydroxyphenyl)-1H-benzo[d]imidazole-5-carboxylate (MBIC) in human cervical cancer HeLa cell” (Journal of Experimental & Clinical Cancer Research : CR, 2016).

Data set [1] relates to HeLa cells. In words: Annexin V-FITC/PI apoptosis detection by flow cytometry. Type of data set: cell-based, human. The note with it: 24 h. How it is done: (§1) Apoptosis was detected using BD Pharmingen Annexin V-FITC Apoptosis Detection Kit as per manufacturer’s protocol. Briefly, cells were seeded in 25 cm^2 culture flasks (10 × 10^5 cells/flask) and were treated in 3 different MBIC concentrations for 24 and 48 h. Later, treated cells were harvested and washed with 1 ml of 1X Phosphate Buffered-Saline (PBS) before adding 200 μl 1X annexin-binding buffer. 10 μl of annexin V-FITC and 10 μl of PI were added to each 200 μl of cell suspension. Cells were then incubated in total darkness for 15 min at room temperature. 500 μl of 1X annexin-binding buffer was added just before the flow cytometry analysis.
For orientation: Flow cytometry measures light scatter and fluorescence of single cells or particles in a stream.

Assay in data set [2]: as above
In kind it is cell-based, human. As to conditions: human, HeLa cells, read-out: viable cells (Q3, annexin V- PI-). How it is done:
as §1

Data set [3] relates to HeLa cells. The data set is described as follows: Drug combination assay (MTT, Chou-Talalay, CampuSyn). Type of data set: cell-based. As to conditions: Homo sapiens, 24 h, drug alone, read-out: (Dm)IC50 Drug 2 (MBIC alone). How it is done: In order to discover the synergistic effects of MBIC with conventional drugs briefly, cells were seeded in 1 × 10^4 cells/well and were incubated at 37 °C overnight. […] Also, the MBIC, combined with each of the selected conventional drugs in a 1:1 ratio, were diluted in concentration from 50 μM to 0.1 μM. Cell viability assay (MTT assay) was performed 24 h post-treatment and absorbance were measured in a microplate reader to find out the IC50 for each conventional drug alone and in combination with MBIC on HeLa cells. For this analysis, we used the commercial software package CampuSyn (Biosoft, Cambridge, United Kingdom; Ref.9). […] Furthermore, the software produced an automated isobologram and fraction affected-combination index (Fa-CI) plot.

The subject of data set [4] is two breast cancer cell lines. More on the design: method as in earlier work. The note with it: cited from earlier work.
In data set [5] the test system is HeLa cells. The data set is described as follows: Cell cycle analysis (PI, flow cytometry). Type of data set: cell-based, human. The note with it: 24 h. How it is done: Cell cycle analysis was performed using propidium iodide (PI). Briefly, cells were seeded in a 25 cm^2 flask, then 60 % confluent cells were treated with MBIC for 24 and 48 h. Following incubation, the cells were harvested and spun down for 5 min at 2000 rpm. The supernatant was removed and cells were then fixed in 1 ml of ice-cold 70 % ethanol overnight at -80 °C. Fixed cells were washed with 1 ml 1X PBS and stained in 500 μl of PI containing 5 μg/ml DNase-free RNase for 30 min at room temperature in total darkness. DNA content of the cell was analyzed by flow cytometry. The percentage of G0-G1, S and G2-M cells were then calculated using Fluorescence-activated cell sorting (FACS) software (BD Biosciences).

For data set [6], the system named is Cyclin B1, CDK1, BubR1, Aurora B. The data set is described as follows: Western blot, cell-cycle related proteins in HeLa cells. Type of data set: cell-based, human. As to conditions: HeLa, 0.21, 0.42 and 1 μM, 24 h. How it is done:
Western blot analysis was used to investigate protein expression levels. It was adopted by Suresh Kumar et al.. Briefly, 1 × 10^5 cells/flask was seeded and treated with MBIC in a dose-dependent manner for 24 h. Cells treated with colchicine and nocodazole served as positive controls. Cells were collected and lysed in RIPA buffer supplemented with a 10 μl protease inhibitor cocktail, sodium orthovanadate, and PMSF (Santa Cruz, USA). The lysate was stored at −80 °C until further use. A 40 μg of sample protein was resolved on 10 % SDS-PAGE and transferred to a polyvinylidene difluoride (PVDF) membrane (Merck Millipore, USA). The membrane was blocked in 5 % BSA for 1 h at room temperature following an overnight incubation at 4 °C with the following primary antibodies: Anti-Cyclin B1, anti-CDK1, anti-BubR1, anti-Aurora B, anti-cleaved PARP, anti-cleaved caspase-3/7/9, anti-Bcl-2 and anti-Bax (1:1000) (Cell Signaling Technology (CST), USA), mouse anti β-actin (1:40000) (Sigma-Aldrich, USA) antibodies.
Membranes were washed with 1X TBS-T prior to incubating with HRP-conjugated goat anti-mouse or anti-rabbit secondary antibodies for 2 h at room temperature. Membranes were washed 3 times with 1X TBS-T to remove excess antibodies before the proteins-antibody complex was detected with Amersham ECL prime western blotting detection reagent (GE Healthcare, USA). Western blot images were quantified and processed by ImageJ software (NIH, USA).
(In general: Immunoblotting shows a protein as a band on a membrane.)

Data set [7] concerns HeLa cells. In words: Multiparameter cytotoxicity assay (Cellomics HCS). Type of data set: cell-based, human. As to conditions: 24 h. How it is done: The critical apoptotic events in cervical cancer including cell permeability, mitochondrial membrane potential (MMP), cytochrome c release and total nuclear intensity after treatment with MBIC were determined using the Cellomics Multiparameter Cytotoxicity 3 Kit. Briefly, 1 × 10 ^4 cells/well were seeded in a 96-well plate and incubated for 24 h prior to treatment with MBIC at various concentrations. At 24 h post treatment, cells were stained with cell permeability and MMP dye and further incubated for 1 h. Stained cells were fixed and permeabilized with 4 % formaldehyde and 0.1 % Triton X-100 in PBS, respectively. Cells were washed twice with 1X PBS prior to blocking with 3 % bovine serum albumin.
Cells were rinsed twice with Wash Buffer I (1X PBS) and incubated with 50 μl/well of Cytochrome c primary antibody. After 60 min, the plate was washed with 1X Wash Buffer and subsequently, 50 μl of goat anti-mouse secondary antibodies conjugated with DyLight 649 were added into each well. Cells were rinsed twice with Wash Buffer I (1X PBS). Hoechst 33342 was added into the staining solution to stain the nucleus. Stained cells in the 96-well plates were analyzed using ArrayScan High Content Screening (HCS) system (Thermo Scientific, USA).

One may read the IC50 as the concentration at which inhibition is half-maximal. Regarding `COC(=O)c1ccc2[nH]c(-c3cc(F)ccc3O)nc2c1` [MBIC, Methyl 2-(5-fluoro-2-hydroxyphenyl)-1H-benzo[d]imidazole-5-carboxylate], the “late apoptotic cells (Q2, annexin V+ PI+)” value in data set [1] (0.21 μM) worked out at 44.8 ± 2.3%. In data set [1] (1 μM), the “late apoptotic cells (Q2, annexin V+ PI+)” value worked out at 74.8 ± 4.2%. The viability at 24 h, 0.21 µM in data set [2] (0.21 μM) stood at 48.8%. The viability at 24 h, 0.42 µM in data set [2] (0.42 μM) was 36.2%. In addition, the viability at 24 h, 1 µM in data set [2] (1 μM) was 17.4%. In data set [3], the IC50 turned out to be 210 ± 20 nM. In addition, the “cytotoxic effect compared to cisplatin” value in data set [4] is “potent cytotoxic effect”. The molecule also displayed a G2-M cell population in data set [5] (0.21 μM) of 26.7 ± 6.3%. Besides, in data set [5] (1 μM), the G2-M cell population was determined as 42.8 ± 6.4%. In data set [6], the “Aurora B protein level (Western blot)” value is reported as “down-regulated”, the “BubR1 protein level (Western blot)” value is on record as “up-regulated”, the “CDK1 protein level (Western blot)” value was “up-regulation” and the “Cyclin B1 protein level (Western blot)” value is recorded as “up-regulation”. In addition, the cytochrome c release result in data set [7] (0.2 and 0.4 μM) was “considerable elevation”. For the same molecule, in data set [7] (0.2 and 0.42 μM), the “cell number (loss of cells)” value is “dose-dependent loss of cells”; the membrane permeability result is “increase of membrane permeability”; the “mitochondrial membrane potential (MMP, Δψm)” value is recorded as “exhaustion of MMP”.
